Results on 5 molecules are retold here after article PMC4039038 (Journal of immunology (Baltimore, Md. : 1950), 2011).

The test system of assay [1] is ERAP1 K528R. The assay can be described thus: LAMC hydrolysis, ERAP1 K528R. The class given is biochemical, human. The following applies: no activating peptide, 25°C, up to 10 min.
Assay [2] has as its system ERAP1 alleles (Ref, K528R, Q730E). Nature of the assay: LAMC hydrolysis, all three ERAP1 alleles. To be noted: no activating peptide; 25°C, up to 10 min. The class given is biochemical, human.
Assay [3] has the same test system. Nature of the assay: LAMC trimming in the presence of SIINFEKL, all three ERAP1 alleles. The class given is biochemical, human. The following applies: 100 μM SIINFEKL
The next assay addresses ERAP1 K528R (528R) (Homo sapiens, UniProt Q9NZ08, K528R). Nature of the assay: Michaelis–Menten kinetics of antigenic peptide precursor trimming, ERAP1 K528R. The class given is biochemical.
Assay [4] concerns ERAP1 Q730E (730E). The assay can be described thus: Michaelis–Menten kinetics of antigenic peptide precursor trimming, ERAP1 Q730E. The class given is biochemical, human. The following applies: low substrate concentrations (kcat/KM); Q730E vs Ref and K528R.
Assay [5] deals with ERAP1 Q730E (730E) (Homo sapiens, UniProt Q9NZ08, Q730E). The description is as above. The class given is biochemical. The following applies: 730E allele; classical MM model; initial trimming rates, reactions limited to 10 min, 25°C.
The subject of the next assay is ERAP1. To be noted: 8mer peptide; ref [3]; cited from earlier work.
A further assay deals with ERAP1 Q730E. Nature of the assay: Activation of LAMC trimming by SIINFEKL, ERAP1 Q730E. The class given is biochemical, human. To be noted: 100 μM SIINFEKL, 25°C, up to 10 min.
The test system of assay [6] is ERAP1 K528R. Nature of the assay: Activation of LAMC trimming by SIINFEKL, ERAP1 K528R. The class given is biochemical, human. The following applies: 100 μM SIINFEKL, 25°C, up to 10 min.
The target of assay [7] is endoplasmic reticulum aminopeptidase 1 (ERAP1), ancestral reference sequence NP_057526 (human, UniProt Q9NZ08-2 1-948). The assay can be described thus: enzyme kinetics.
Another assay has as its target ERAP1 Q730E (rs27044) (human, UniProt Q9NZ08-2 1-948, Q730E). The assay can be described thus: enzyme kinetics.
Setting [8] is: 528R allele, classical MM model, initial trimming rates, reactions limited to 10 min, 25°C.

The term Km denotes the concentration of substrate that gives half-maximal velocity. A word on the Ki: it is the equilibrium dissociation constant of an inhibitor or competing ligand from its target. The low end stands for higher affinity, the high end for lower affinity.

Take `Cc1cc(=O)oc2cc(NC(=O)[C@@H](N)CC(C)C)ccc12` [LAMC, L-leucine-7-amido-4-methyl coumarin]: the “fold less active of ERAP1 K528R in LAMC hydrolysis” value in the assay on ERAP1 K528R [1] was ~ 4 fold. Moreover, in assay [2], the “hydrolysis of LAMC by all three variants” value is “enzymatically active”. Also, the “trimming activity of all three alleles toward LAMC in the presence of SIINFEKL” value in [3] (comparison between the three alleles) is given as “comparable trimming activity”.
For LATFPDTLTY, on ERAP1 K528R (528R) (setting [8]), the Km worked out at 49 ± 13 µM, the kcat turned out to be 3.09 ± 0.203 s^–1 and the kcat/KM is reported as 63 ± 17 × 10^3 s^–1 M^–1. For the same molecule, at ERAP1 K528R (528R) (saturating conditions (kcat controls trimming rates)), the “processing rate by the K528R allele relative to other alleles” value was “twice as quickly”. Moreover, the “processing rate, fold more slowly by Q730E than by the other two alleles” value with ERAP1 Q730E (730E) [4] turned out to be 2 fold. At ERAP1 Q730E (730E) [5], the Km was 45 ± 11 µM, the kcat was 1.635 ± 0.10 s^–1 and the kcat/KM is on record as 36 ± 9 × 10^3 s^–1 M^–1.
For the molecule SIINFEKL, the “substrate quality for ERAP1” value in the assay on ERAP1 is “poor substrate”. Besides, the “magnitude of activation of LAMC trimming” value amounted to 1.6 fold in the assay on ERAP1 Q730E and 4 fold with ERAP1 K528R [6]. Moreover, the “ERAP1-mediated hydrolysis of LAMC in the presence of SIINFEKL” value in assay [3] is “enhanced”.
In assay [7], YKRFEGLTQR [YKRFEGLTQR, single-amino acid extended precursor of the HLA-B27 ligand KRFEGLTQR] yielded a Ki of 394 ± 133 µM.
In turn, LKRVVINKDT [LKRVVINKDT, single-amino acid extended precursor of the HLA-B27 ligand KRVVINKDT] registered a Ki with ERAP1 Q730E (rs27044) of 132 ± 53 µM.
